The structures appear in SMILES notation. “And” between values parts separate entries of the source, which are not always exact repeats. Identical values can stand only once.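 Growth conditions: 96-well plates. Treatment: test compound, 48 hours, 5 concentrations. Analysis: linear interpolation between bracketing concentrations; unreached endpoints set to highest concentration. GI50 is the concentration that inhibits growth by half. The concentration for full growth arrest is given as TGI.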

Among the data in PubChem BioAssay (NCI) are GI50 and TGI values, retold here.

Test systems include HCT-15 colon; SF-295 CNS; OVCAR-4 ovarian; 786-0 renal; MALME-3M melanoma; HL-60(TB) leukemia; OVCAR-8 ovarian; SK-MEL-5 melanoma; U251 CNS; SR leukemia.
Common to all, as to assay: inhibition of tumour cell growth, NCI panel, 48 h

For `COc1ccc(-c2ccc(/C=N/n3c(C)nn(CN4CCN(C)CC4)c3=S)o2)c([N+](=O)[O-])c1`, the GI50 with HCT-15 colon was 28.7 µM; in the test on SF-295 CNS, 18.3 µM; in the test with OVCAR-4 ovarian, 7.91 µM; with 786-0 renal it was 39.4 µM; with MALME-3M melanoma, 44.6 µM; in the test with HL-60(TB) leukemia, 14.9 µM. Besides, the TGI in the test with HCT-15 colon is greater than 100 µM; with SF-295 CNS, 48.2 µM; with OVCAR-4 ovarian it was 35.7 µM; in the test with 786-0 renal it was greater than 100 µM; in the test with MALME-3M melanoma, greater than 100 µM; with HL-60(TB) leukemia, 33.3 µM.

On to `COc1ccc(Cn2cc3c(c2-c2cc(OC)c(OC)c(OC)c2)CCc2cnoc2-3)cc1[N+](=O)[O-]`, for which the GI50 in the test with HCT-15 colon is 0.573 µM; with SF-295 CNS, 0.328 µM; in the test on OVCAR-8 ovarian, 3.35 µM; in the test on SK-MEL-5 melanoma, 0.45 µM; in the test with OVCAR-4 ovarian it was 3.75 µM; with U251 CNS it was 1.2 µM. Moreover, the GI50 in the test with 786-0 renal is 6.74 µM; with MALME-3M melanoma, 0.387 µM; in the test with HL-60(TB) leukemia, 0.412 µM. For the same compound, the TGI with HCT-15 colon is greater than 100 µM; in the test on SF-295 CNS it was 2.09 µM; with OVCAR-8 ovarian, greater than 100 µM; in the test with SK-MEL-5 melanoma it was greater than 71.6 µM; in the test with OVCAR-4 ovarian it was greater than 100 µM; in the test on U251 CNS, greater than 100 µM. The TGI was greater than 43.5 µM in the test with 786-0 renal, greater than 100 µM in the test on MALME-3M melanoma and 7.98 µM in the test with HL-60(TB) leukemia.

Take `Nc1nnc(Cn2c(-c3ccccc3)nc3ccc(Br)cc3c2=O)s1`: the GI50 is 31.6 µM with HCT-15 colon; 26.2 µM with SF-295 CNS; 1.25 µM with OVCAR-8 ovarian; 26.8 µM in the test with SK-MEL-5 melanoma; greater than 100 µM with OVCAR-4 ovarian; 38.4 µM with U251 CNS. Besides, the GI50 in the test on 786-0 renal was 58.7 µM. In addition, the TGI is greater than 100 µM with HCT-15 colon; greater than 100 µM in the test with SF-295 CNS; 41 µM in the test on OVCAR-8 ovarian; 86.2 µM with SK-MEL-5 melanoma; greater than 100 µM in the test on OVCAR-4 ovarian; greater than 100 µM in the test with U251 CNS. The same compound showed a TGI with 786-0 renal greater than 100 µM.

In the case of `Cc1ccc(C)c(NC(=O)CCc2nc(=S)[nH][nH]2)c1`, the TGI in the test with HCT-15 colon, in the test on SF-295 CNS, in the test with OVCAR-8 ovarian, with SK-MEL-5 melanoma, in the test on SR leukemia and with OVCAR-4 ovarian was greater than 100 µM throughout. In addition, the TGI in the test on U251 CNS, with 786-0 renal and in the test with MALME-3M melanoma was greater than 100 µM throughout.

For the compound `O=C(O)Cn1c(=O)[nH]c(=O)c2c1ncn2Cc1ccccc1`, the TGI in the test with HCT-15 colon, in the test on OVCAR-8 ovarian, in the test on SK-MEL-5 melanoma, in the test with SR leukemia, with U251 CNS and in the test with 786-0 renal was greater than 100 µM in each case. For the same compound, the TGI in the test with MALME-3M melanoma was greater than 100 µM.

Consider `O=C1c2c(O)cc(O)cc2OC(c2ccc(O)cc2O)C1O` (configuration not stated), for which the GI50 with HCT-15 colon, in the test on OVCAR-8 ovarian, in the test on SK-MEL-5 melanoma, in the test on OVCAR-4 ovarian, with U251 CNS and in the test on 786-0 renal was greater than 100 µM throughout. Besides, the GI50 in the test on MALME-3M melanoma and in the test on HL-60(TB) leukemia was greater than 100 µM in each case. The TGI with HCT-15 colon, in the test on SF-295 CNS, in the test on OVCAR-8 ovarian, in the test on SK-MEL-5 melanoma, in the test on OVCAR-4 ovarian and in the test on U251 CNS was greater than 100 µM in each case. Moreover, the TGI with 786-0 renal, in the test on MALME-3M melanoma and in the test on HL-60(TB) leukemia was greater than 100 µM each time.

With `CC(=O)OC1CC2C(C)(C)C(=O)C=CC2(C)C2CCC3(C)C(c4ccoc4)OC(=O)C4OC43C12C` (configuration not stated), the TGI was 35.4 µM in the test with HCT-15 colon; greater than 100 µM in the test with SF-295 CNS; 53.9 µM in the test with OVCAR-8 ovarian; 19.2 µM in the test with SK-MEL-5 melanoma; greater than 100 µM in the test with OVCAR-4 ovarian; 26.1 µM in the test with U251 CNS. For the same compound, the figures for the TGI in the test on 786-0 renal and in the test with HL-60(TB) leukemia were 27.4 µM and greater than 100 µM, respectively.

Consider `CC(=O)[O-].O=C([CH-]C(=O)c1ccccc1)c1ccccc1.O=C([CH-]C(=O)c1ccccc1)c1ccccc1.[Y+3]`, for which the GI50 with HCT-15 colon is 5.45 µM; with SF-295 CNS, 3.29 µM; in the test with OVCAR-8 ovarian, 3.04 µM; in the test on SK-MEL-5 melanoma, 3.56 µM; with OVCAR-4 ovarian, 5.73 µM; in the test on U251 CNS, 3.91 µM. The GI50 in the test on 786-0 renal is 3.9 µM; with MALME-3M melanoma, 8.02 µM; in the test on HL-60(TB) leukemia it was 2.44 µM. The TGI was determined as 26.7 µM in the test on HCT-15 colon; 18.5 µM in the test with SF-295 CNS; 20.6 µM in the test with OVCAR-8 ovarian; 14.2 µM in the test with SK-MEL-5 melanoma; 77.3 µM in the test on OVCAR-4 ovarian; 31.5 µM with U251 CNS. In addition, the values for the TGI with 786-0 renal, in the test with MALME-3M melanoma and in the test on HL-60(TB) leukemia were 18 µM, 39.5 µM and 10.8 µM, respectively.

Regarding `Cc1c(NC(=O)OC[C@@H]2COCCN2)cn2ncnc(Nc3ccc4c(cnn4Cc4cccc(F)c4)c3)c12`, the GI50 in the test on HCT-15 colon was 5.81 µM and 6.14 µM; with SF-295 CNS, 9.08 µM and 5.67 µM; with OVCAR-8 ovarian it was > 10 µM and 8.88 µM; in the test with SK-MEL-5 melanoma, 5.3 µM and 5.56 µM; with OVCAR-4 ovarian it was > 10 µM and 8.04 µM; with U251 CNS it was 7.5 µM and 5.16 µM. Also, the GI50 was 8.46 µM and 6.1 µM in the test with 786-0 renal; > 10 µM and 10.5 µM in the test with MALME-3M melanoma; 7.76 µM and 17.5 µM with HL-60(TB) leukemia. The TGI in the test on HCT-15 colon is > 10 µM and 21.4 µM; with SF-295 CNS, > 10 µM and 20.6 µM; with OVCAR-8 ovarian, > 10 µM and 28.7 µM; in the test on SK-MEL-5 melanoma, > 10 µM and 17.4 µM; in the test with OVCAR-4 ovarian, > 10 µM and 27.3 µM; with U251 CNS, > 10 µM and 18.6 µM. The TGI with 786-0 renal is > 10 µM and 24.1 µM; in the test with MALME-3M melanoma, > 10 µM and 31.2 µM; in the test with HL-60(TB) leukemia, > 10 µM and 37 µM.

In the case of `CCCCC#CC#Cc1cccc(=O)o1`, the GI50 with HCT-15 colon is 20.2 µM; with SF-295 CNS, 18.8 µM; in the test on OVCAR-8 ovarian, 26.4 µM; in the test with OVCAR-4 ovarian, 16.4 µM; in the test with U251 CNS, 24.6 µM; with 786-0 renal, 16.6 µM. For the same compound, the GI50 in the test with MALME-3M melanoma was 14.1 µM; with HL-60(TB) leukemia, 15.6 µM. Moreover, the TGI with HCT-15 colon was 39.5 µM; with SF-295 CNS it was 40 µM; in the test on OVCAR-8 ovarian it was 62.9 µM; in the test on OVCAR-4 ovarian it was 37.6 µM; with U251 CNS, 72.7 µM; in the test with 786-0 renal it was 34.6 µM. For the same compound, the TGI with MALME-3M melanoma was determined as 27.6 µM; in the test with HL-60(TB) leukemia, 43.1 µM.
